Test results from patent EP2886531B1, “Aspartic acid derivatives” (Merck Patent GmbH, priority 2013, dated 2015).

Tests used:
[1] = Prolonged piperidine treatment of VKDNYI peptide resin (aspartimide formation, Asp-Asn motif); assay type: physicochemical; details: for D/L-Asu [%] / piperidides [%] / target [%]: 110 Fmoc removal cycles; for target [%]: target peptide VKDNYI
Experimental: (§1) Automated peptide synthesis, piperidine treatments of the resin samples and final TFA cleavages are performed as described in the protocols of example 4. In addition, 50 mg peptide resin samples are treated with a solution of DBU/piperidine/DMF (1:19:79) over 225 minutes to investigate the aspartimide formation at harsher Fmoc deprotection conditions often used for complete Fmoc removals in aggregation prone sequences.
(§2) The resulting peptide samples are analysied and all relevant impurities identified by UPLC-MS analysis (Xevo Waters Q-TOF-1, lock mass = 556.277 (leu-enkephaline), LC-conditions: CHS 18 1,7 µm (100x2.1 mm) at 40°C; water acetonitrile gradient of 5% to 35 % B over 10 min where buffer A is 0.1 % formic acid in water and buffer B is 0.1 % formic acid in acetonitrile, flow 0.6 ml/min).
In table 2 the amounts of by-products formed after the prolonged exposure of the peptide resins to piperidine (110 Fmoc removal cycles) are summarized for all side-chain protections used in this invention. […] Table 2: Results after 110 Fmoc removal cycles using piperidine, target peptide = VKDNYI, the aspartimide (Asu) derived by products are the aspartimide itself and the sum of piperidides

[2] = Prolonged DBU treatment of VKDNYI peptide resin (aspartimide formation); assay type: physicochemical; details: for D/L-Asu [%] / piperides [%]: DBU/piperidine/DMF (1:19:79), 225 minutes; for target [%]: target peptide VKDNYI, DBU/piperidine/DMF (1:19:79) over 225 minutes, 110 Fmoc removal cycles
Experimental: as §1, §2
In table 3 the amounts of by-products formed after prolonged DBU treatments are summarized for all side-chain protections used in this invention. […] Since the DBU mediated Fmoc removals are much quicker than the piperidine mediated, this experiment again represents a Fmoc SPPS assembly of an 100mer after introducing the aspartic acid residue using exclusively DBU for Fmoc cleavage. Table 3: Results after 110 Fmoc removal cycles using DBU, target peptide = VKDNYI, the aspartimide (Asu) derived by-products are the aspartimide itself and the sum of piperidides

[3] = Prolonged piperidine treatment of VKDRYI peptide resin (aspartimide formation, Asp-Arg motif); assay type: physicochemical; details: for D/L-Asu [%] / piperidides [%] / target [%]: 110 Fmoc removal cycles; for target [%]: target peptide VKDRYI
Experimental: (§3) Automated peptide synthesis, piperidine treatments of the resin samples and final TFA cleavages are performed as described in the protocols of example 4. In addition, to evaluate the advantage of the protecting groups used in this invention in heat accelerated SPPS we treat 50 mg peptide resin samples with a solution of 20% piperidine in DMF at 60°C over 200 minutes. Microwave assisted peptide synthesis conditions are often used to shorten peptide synthesis times and increase coupling reaction and Fmoc deprotection.
(§4) In table 4 the amounts of by-products formed after the prolonged exposure of the peptide resins to piperidine (110 Fmoc removal cycles) are summarized for all side-chain protections used in this invention. Table 4: Results after 110 Fmoc removal cycles using piperidine, target peptide sequence = VKDRYI, the aspartimide (Asu) derived by-products are the aspartimide itself and the sum of piperidides

[4] = Prolonged piperidine treatment at 60°C of VKDRYI peptide resin (aspartimide formation); assay type: physicochemical; details: for D/L-Asu [%] / piperidides [%]: 20% piperidine in DMF at 60°C, 200 minutes; for target [%]: target peptide VKDRYI, 20% piperidine in DMF at 60°C over 200 minutes, 100 Fmoc removal cycles; for aspartimide by-products per cycle: piperidine at 60 degrees Celsius
Experimental: as §3
The application of microwave heating to SPPS is accelerating coupling and deprotection reactions leading to shorter cycle times, higher repetitive yields, and ultimately purer peptides. On the other hand, microwave energy can also lead to increased levels of aspartimide by-products. To overcome that drawback we evaluated the advantage of the side-chain protections used in this invention by exposing the peptide resins to Fmoc removal cycles at 60 degrees Celsius.
as §4, with “5” for “4”, “at 60 degree Celsius (100” for “(110”, “invention. […]” for “invention.”, “5:” for “4:”, “100” for “110”, “piperidine at 60°C,” for “piperidine,”

[5] = Prolonged treatment of VKDGYI peptide resin with 1 M Oxyma Pure and 20 % piperidine (aspartimide formation); assay type: physicochemical; details: for Asu per 10' cycle / Asu [%] / piperidides [%]: Oxyma Pure +; for Asu [%] / piperidides [%] / target [%]: 18 hours; for target [%]: Oxyma Pure +: 1 M Oxyma Pure and 20 % piperidine in dimethylformamide
Experimental: [drawing 14] 50 mg samples of the corresponding aspartic acid derivatives of example 4 are treated over 18 hours with a solution of 1 M Oxyma Pure and 20 % piperidine in dimethylformamide. The peptides are cleaved off the resin with 95 % TFA and analysed with HPLC as well as MS to identify all aspartimide related products (conditions see example 4). The results are summarized in table 6: Table 6: Results after 110 Fmoc removal cycles using an acidic modifier in the piperidine mediated Fmoc removal cocktails, target peptide = VKDG YI, the aspartimide derived by-products are the aspartimide itself and the sum of piperidides

[6] = Prolonged piperidine treatment of VKDGYI peptide resin (aspartimide formation, Asp-Gly motif)
[7] = VKDGYI, 20 % piperidine in dimethylformamide
[8] = VKDGYI, 20 % piperidine in dimethylformamide, 18 hours, aspartimide
[9] = VKDGYI, 20 % piperidine in dimethylformamide, 18 hours, sum of piperidides
[10] = VKDGYI, Oxyma Pure -: 20 % piperidine only, 18 hours (as Table 1)
[11] = target peptide VKDGYI, 20 % piperidine in dimethylformamide over 18 hours, 110 Fmoc removal cycles
[12] = VKDGYI, 1 M Oxyma Pure in 20 % piperidine

SMILES	Asu per 10' cycle ([1]; VKDNYI, piperidine)	D/L-Asu [%] ([1]; VKDNYI, piperidine)	piperidides [%] ([1]; VKDNYI, piperidine)	target [%] ([1]; piperidine)	Asu per 2' cycle ([2]; VKDNYI, DBU)	D/L-Asu [%] ([2]; VKDNYI)	piperides [%] ([2]; VKDNYI)	target [%] [2] [%]	Asu per 10' cycle ([3]; VKDRYI)	Half-life in cycles ([3]; VKDRYI) [cycles]	D/L-Asu [%] ([3]; VKDRYI)	piperidides [%] ([3]; VKDRYI)	target [%] [3] [%]	Half-life in cycles [4] [cycles]	D/L-Asu [%] ([4]; VKDRYI)	piperidides [%] ([4]; VKDRYI)	Asu per 10' cycle ([4]; VKDRYI, piperidine at 60°C)	target [%] [4] [%]	Asu per 10' cycle ([5]; VKDGYI)	Asu [%] ([5]; VKDGYI)	also measured
CCCCC(CCCC)(CCCC)OC(=O)C[C@H](NC(=O)OCC1c2ccccc2-c2ccccc21)C(=O)O [Bno]	0.04	0.9	3.6	95.5	0.3	3.5	22.0	74.5	0.06	1202	2.6	3.6	93.8	718	4.9	4.3	0.1	90.8	–	–	aspartimide side reaction during the Fmoc removals, rate per cycle ([1]; VKDNYI, piperidine): 0.05%; aspartimide formation per 2 minute Fmoc removal cycle ([2]; VKDNYI, DBU): less than 0.3%; aspartimide side reaction during the Fmoc removals per cycle ([3]; VKDRYI): less than 0.06%
CCC(CC)(CC)OC(=O)C[C@H](NC(=O)OCC1c2ccccc2-c2ccccc21)C(=O)O [Epe, (2S)-N-((9H-fluoren-9-ylmethyloxy)carbonyl)aspartic acid-4-((3-ethyl)pent-3-yl) ester]	0.2	3.0	16.0	81.0	0.5	5.6	37.3	57.1	0.1	539	3.90	9.4	86.7	439	7.8	6.8	0.2	85.4	0.14	2.6	Half-life in cycles [1]: 365 cycles; Half-life in cycles [2]: 138 cycles; aspartimide by-products per cycle ([4]; VKDRYI): 0.2%; piperidides [%] ([5]; VKDGYI): 11.7%; target [%] ([5]; VKDGYI): 85.7%; Asu per 10' cycle [%] [6, 7]: 0.4%; Asu [%] [6, 8]: 4.1%; piperidides [%] [6, 9]: 31.5%; Asu [%] ([6]; VKDGYI, Oxyma Pure -): 4.1%; Asu per 10' cycle ([6]; VKDGYI, Oxyma Pure -): 0.4; piperidides [%] ([6]; VKDGYI, Oxyma Pure -): 31.5%; target [%] [6, 10]: 64.4%; minimizes the aspartimide formation by a factor compared to Mpe ([6]; VKDGYI, relative to Mpe protection): two; target [%] [6, 11]: 64.4%
CCC(C)(CC)OC(=O)C[C@H](NC(=O)OCC1c2ccccc2-c2ccccc21)C(=O)O [Mpe, Fmoc-Asp(OMpe)-OH, reference compound]	0.5	4.3	37.5	58.2	1.5	7.5	73.7	18.8	0.4	173	6.9	28.9	64.2	–	16.9	19.6	0.5	63.5	0.16	3.8	Half-life in cycles ([1]; VKDNYI, piperidine): 140 cycles; times more aspartimide per Fmoc removal cycle ([1]; VKDNYI, piperidine, in comparison to Bno): ten; Half-life in cycles ([2]; VKDNYI, DBU, 2' cycles): 46 cycles; times more aspartimide per Fmoc removal cycle ([3]; VKDRYI, in comparison to Bno): approximately seven; Half-life in cycles ([3]; VKDRYI, listed as Fmoc-Asp(OMpe)-OH): approx. 170 cycles; aspartimide by-products per cycle ([4]; VKDRYI): 0.5%; Half-life in cycles ([4]; VKDRYI, piperidine at 60°C): 153 cycles; piperidides [%] ([5]; VKDGYI): 12.0%; target [%] ([5]; VKDGYI): 84.2%; Asu per 10' cycle [%] [6, 7]: 0.8%; Half-life in 10' cycles [6, 7]: 90 10' cycles; Asu [%] [6, 8]: 6.7%; piperidides [%] [6, 9]: 51.0%; Asu [%] ([6]; VKDGYI, Oxyma Pure -): 6.7%; Asu per 10' cycle ([6]; VKDGYI, Oxyma Pure -): 0.8; piperidides [%] ([6]; VKDGYI, Oxyma Pure -): 51.0%; target [%] [6, 10]: 42.3%; target [%] [6, 11]: 42.3%
CCCC(CCC)(CCC)OC(=O)C[C@H](NC(=O)OCC1c2ccccc2-c2ccccc21)C(=O)O [Php, (2S)-N-((9H-fluoren-9-ylmethyloxy)carbonyl)aspartic acid-4-(4-(n-propyl)hept-4-yl) ester]	0.09	1.0	8.2	90.8	0.4	3.3	25.7	71.0	0.08	845	3.2	5.5	91.3	532	7.1	5.1	0.1	87.8	0.04	1.3	Half-life in cycles [1]: 800 cycles; Half-life in cycles [2]: 192 cycles; aspartimide side reaction ([5]; Asp-Gly sequence, Fmoc removal solution of 1 M Oxyma Pure in piperidine/DMF 1:4): nearly inhibits the apartimide side reaction; aspartimide derived by-products per Fmoc removal [5, 12]: 0.05%; half-life [5, 12]: greater than 1500 cycles; piperidides [%] ([5]; VKDGYI): 3.3%; target [%] ([5]; VKDGYI): 95.4%; half-life of the target peptide increased, in respect of Mpe ([6]; VKDGYI, Asp-Gly sequence, relative to Mpe protection): 4 fold; half-life of the target peptide increased, instead of tBu ([6]; VKDGYI, Asp-Gly sequence, relative to tBu protection): more than 10 fold; Asu per 10' cycle [%] [6, 7]: 0.2%; Asu [%] [6, 8]: 2.9%; piperidides [%] [6, 9]: 16.5%; Asu [%] ([6]; VKDGYI, Oxyma Pure -): 2.9%; Asu per 10' cycle ([6]; VKDGYI, Oxyma Pure -): 0.2; piperidides [%] ([6]; VKDGYI, Oxyma Pure -): 16.5%; target [%] [6, 10]: 80.6%; target [%] [6, 11]: 80.6%
